{
  "source": "patent US4605744A",
  "about": "“Imidazole derivatives” (Hoffmann-La Roche Inc., priority 1985, dated 1986)",
  "assay_in_all_cases": "In vitro antibacterial activity (MIC)",
  "format_in_all_cases": "cell-based",
  "key": {"C. freundii 8ASM": {"system": "C. freundii 8ASM", "conditions": "Citrobacter freundii, 8ASM, C. freundii 8ASM; read-out: MIC", "in_short": "(§1)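 Read-out: visible growth, checked with a viewer after overnight incubation at 37° C. Bacteria, from a 10^-2 dilution of an overnight culture, were exposed to drug at 128 to 0.008 μg/ml in Mueller-Hinton broth.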"}, "E. aerogenes 503-478": {"system": "E. aerogenes 503-478", "conditions": "Klebsiella aerogenes, 503478, E. aerogenes 503-478; read-out: MIC", "in_short": "as §1"}, "E. aerogenes 83": {"system": "E. aerogenes 83", "conditions": "Klebsiella aerogenes, 83, E. aerogenes 83; read-out: MIC", "in_short": "as §1"}, "E. aerogenes 8": {"system": "E. aerogenes 8", "conditions": "Klebsiella aerogenes; E. aerogenes 8; read-out: MIC", "in_short": "as §1"}, "E. cloacae 214": {"system": "E. cloacae 214", "conditions": "Enterobacter cloacae, 214, E. cloacae 214; read-out: MIC", "in_short": "as §1"}, "E. cloacae 5699": {"system": "E. cloacae 5699", "conditions": "Enterobacter cloacae, 5699, E. cloacae 5699; read-out: MIC", "in_short": "as §1"}, "E. cloacae 6951": {"system": "E. cloacae 6951", "conditions": "Enterobacter cloacae, 6951, E. cloacae 6951; read-out: MIC", "in_short": "as §1"}, "E. cloacae 9295": {"system": "E. cloacae 9295", "conditions": "Enterobacter cloacae, 9295, E. cloacae 9295; read-out: MIC", "in_short": "as §1"}, "E. cloacae 9570A": {"system": "E. cloacae 9570A", "conditions": "Enterobacter cloacae, read-out: MIC", "in_short": "as §1"}, "E. cloacae P99": {"system": "E. cloacae P99", "conditions": "Enterobacter cloacae, P99, E. cloacae P99", "in_short": "as §1"}, "E. coli 387-1": {"system": "E. coli 387-1", "conditions": "Escherichia coli, 3871, E. coli 387-1; read-out: MIC", "in_short": "as §1"}, "E. coli 48": {"system": "E. coli 48", "conditions": "Escherichia coli, 48, E. coli 48; read-out: MIC", "in_short": "as §1"}, "E. coli 4": {"system": "E. coli 4", "conditions": "Escherichia coli, 4, E. coli 4; read-out: MIC", "in_short": "as §1"}, "E. coli 503-455": {"system": "E. coli 503-455", "conditions": "Escherichia coli, 503455, E. coli 503-455; read-out: MIC", "in_short": "as §1"}, "E. coli 5152": {"system": "E. coli 5152", "conditions": "Escherichia coli, 5152, E. coli 5152; read-out: MIC", "in_short": "as §1"}, "E. coli R-563": {"system": "E. coli R-563", "conditions": "Escherichia coli, R563, E. coli R-563; read-out: MIC", "in_short": "as §1"}, "K. pneumoniae 35": {"system": "K. pneumoniae 35", "conditions": "Klebsiella pneumoniae; K. pneumoniae 35; read-out: MIC", "in_short": "as §1"}, "K. pneumoniae 4964": {"system": "K. pneumoniae 4964", "conditions": "Klebsiella pneumoniae, 4964, K. pneumoniae 4964; read-out: MIC", "in_short": "as §1"}, "K. pneumoniae 503-964": {"system": "K. pneumoniae 503-964", "conditions": "Klebsiella pneumoniae, 503964; K. pneumoniae 503-964; read-out: MIC", "in_short": "as §1"}, "K. pneumoniae 503-994": {"system": "K. pneumoniae 503-994", "conditions": "Klebsiella pneumoniae, 503994, K. pneumoniae 503-994; read-out: MIC", "in_short": "as §1"}, "K. pneumoniae 5096": {"system": "K. pneumoniae 5096", "conditions": "Klebsiella pneumoniae; K. pneumoniae 5096; read-out: MIC", "in_short": "as §1"}, "K. pneumoniae 8357": {"system": "K. pneumoniae 8357", "conditions": "Klebsiella pneumoniae, 8357, K. pneumoniae 8357; read-out: MIC", "in_short": "as §1"}, "K. pneumoniae A": {"system": "K. pneumoniae A", "conditions": "Klebsiella pneumoniae, K. pneumoniae A; read-out: MIC", "in_short": "as §1"}, "K. pneumoniae HE7": {"system": "K. pneumoniae HE7", "conditions": "Klebsiella pneumoniae; K. pneumoniae HE7; read-out: MIC", "in_short": "as §1"}, "P. aeruginosa 503-56": {"system": "P. aeruginosa 503-56", "conditions": "Pseudomonas aeruginosa, 50356, P. aeruginosa 503-56; read-out: MIC", "in_short": "as §1"}, "P. aeruginosa 503-820": {"system": "P. aeruginosa 503-820", "conditions": "Pseudomonas aeruginosa, 503820; P. aeruginosa 503-820; read-out: MIC", "in_short": "as §1"}, "P. aeruginosa 6148B": {"system": "P. aeruginosa 6148B", "conditions": "Pseudomonas aeruginosa, read-out: MIC", "in_short": "as §1"}, "P. aeruginosa 8710": {"system": "P. aeruginosa 8710", "conditions": "Pseudomonas aeruginosa; P. aeruginosa 8710; read-out: MIC", "in_short": "as §1"}, "P. aeruginosa 8780": {"system": "P. aeruginosa 8780", "conditions": "Pseudomonas aeruginosa; P. aeruginosa 8780; read-out: MIC", "in_short": "as §1"}, "P. mirabilis 190": {"system": "P. mirabilis 190", "conditions": "Proteus mirabilis, 190, P. mirabilis 190; read-out: MIC", "in_short": "as §1"}, "P. mirabilis 2": {"system": "P. mirabilis 2", "conditions": "Proteus mirabilis, 2, P. mirabilis 2; read-out: MIC", "in_short": "as §1"}, "P. rettgeri ATCC 9250": {"system": "P. rettgeri ATCC 9250", "conditions": "Providencia rettgeri, ATCC9250, P. rettgeri ATCC 9250; read-out: MIC", "in_short": "as §1"}, "P. vulgaris ATCC 6380": {"system": "P. vulgaris ATCC 6380", "conditions": "Proteus vulgaris, ATCC6380, P. vulgaris ATCC 6380; read-out: MIC", "in_short": "as §1"}, "S. aureus Giorgio": {"system": "S. aureus Giorgio", "conditions": "Staphylococcus aureus, S. aureus Giorgio; read-out: MIC", "in_short": "as §1"}, "S. marcescens 5805": {"system": "S. marcescens 5805", "conditions": "Serratia marcescens, 5805, S. marcescens 5805; read-out: MIC", "in_short": "as §1"}, "S. marcescens S2": {"system": "S. marcescens S2", "conditions": "Serratia marcescens; S. marcescens S2; read-out: MIC", "in_short": "as §1"}, "S. marcescens S3": {"system": "S. marcescens S3", "conditions": "Serratia marcescens; S. marcescens S3; read-out: MIC", "in_short": "as §1"}, "S. marcescens S4": {"system": "S. marcescens S4", "conditions": "Serratia marcescens, S4, S. marcescens S4; read-out: MIC", "in_short": "as §1"}, "S. marcescens SM": {"system": "S. marcescens SM", "conditions": "Serratia marcescens, read-out: MIC", "in_short": "as §1"}, "S. pneumoniae 6301": {"system": "S. pneumoniae 6301", "conditions": "Streptococcus pneumoniae, 6301, S. pneumoniae 6301; read-out: MIC", "in_short": "as §1"}, "S. pneumoniae 6302": {"system": "S. pneumoniae 6302", "conditions": "Streptococcus pneumoniae, 6302, S. pneumoniae 6302; read-out: MIC", "in_short": "as §1"}, "S. pneumoniae SC": {"system": "S. pneumoniae SC", "conditions": "Streptococcus pneumoniae, read-out: MIC", "in_short": "as §1"}, "S. pyogenes 4": {"system": "S. pyogenes 4", "conditions": "Streptococcus pyogenes, 4, S. pyogenes 4; read-out: MIC", "in_short": "as §1"}, "S. schottmuelleri": {"system": "S. schottmuelleri", "in_short": "as §1"}, "S. typhi P58A": {"system": "S. typhi P58A", "conditions": "Salmonella enterica, TYPHI", "in_short": "as §1"}},
  "note": "Structures can show the parent of a compound that is named as a salt.",
  "data": [
    {"smiles": "CC1(C)S[C@@H]2[C@H](N=CN3CCC(Cn4ccnc4CN)CC3)C(=O)N2[C@H]1C(=O)O", "note": "[J, [2S-(2alpha,5alpha,6beta)]-6-[[[4-[[2-(aminomethyl)-1H-imidazol-1-yl]methyl]-1-piperidinyl]methylene]amino]-3,3-dimethyl-7-oxo-4-thia-1-azabicyclo[3.2.0]heptane-2-carboxylic acid hydrochloride]", "values": [
      {"measurement": "MIC", "setting": "C. freundii 8ASM", "result": 0.125, "unit": "µg/mL"},
      {"measurement": "MIC", "setting": "E. aerogenes 503-478", "result": 8, "unit": "µg/mL"},
      {"measurement": "MIC", "setting": "E. aerogenes 83", "result": 1, "unit": "µg/mL"},
      {"measurement": "MIC", "setting": "E. aerogenes 8", "result": 0.5, "unit": "µg/mL"},
      {"measurement": "MIC", "setting": "E. cloacae 214", "result": 1, "unit": "µg/mL"},
      {"measurement": "MIC", "setting": "E. cloacae 5699", "result": 4, "unit": "µg/mL"},
      {"measurement": "MIC", "setting": "E. cloacae 6951", "result": 16, "unit": "µg/mL"},
      {"measurement": "MIC", "setting": "E. cloacae 9295", "result": 4, "unit": "µg/mL"},
      {"measurement": "MIC", "setting": "E. cloacae 9570A", "result": 0.5, "unit": "µg/mL"},
      {"measurement": "MIC", "setting": "E. cloacae P99", "result": 8, "unit": "µg/mL"},
      {"measurement": "MIC", "setting": "E. coli 387-1", "result": 0.125, "unit": "µg/mL"},
      {"measurement": "MIC", "setting": "E. coli 48", "result": 8, "unit": "µg/mL"},
      {"measurement": "MIC", "setting": "E. coli 4", "result": 0.062, "unit": "µg/mL"},
      {"measurement": "MIC", "setting": "E. coli 503-455", "result": 1, "unit": "µg/mL"},
      {"measurement": "MIC", "setting": "E. coli 5152", "result": 16, "unit": "µg/mL"},
      {"measurement": "MIC", "setting": "E. coli R-563", "result": 0.125, "unit": "µg/mL"},
      {"measurement": "MIC", "setting": "K. pneumoniae 35", "result": 0.5, "unit": "µg/mL"},
      {"measurement": "MIC", "setting": "K. pneumoniae 4964", "result": 0.5, "unit": "µg/mL"},
      {"measurement": "MIC", "setting": "K. pneumoniae 503-964", "result": 0.25, "unit": "µg/mL"},
      {"measurement": "MIC", "setting": "K. pneumoniae 503-994", "result": 8, "unit": "µg/mL"},
      {"measurement": "MIC", "setting": "K. pneumoniae 5096", "result": 128, "unit": "µg/mL"},
      {"measurement": "MIC", "setting": "K. pneumoniae 8357", "result": 4, "unit": "µg/mL"},
      {"measurement": "MIC", "setting": "K. pneumoniae A", "result": 0.062, "unit": "µg/mL"},
      {"measurement": "MIC", "setting": "K. pneumoniae HE7", "result": "> 128", "unit": "µg/mL"},
      {"measurement": "MIC", "setting": "P. aeruginosa 503-56", "result": 64, "unit": "µg/mL"},
      {"measurement": "MIC", "setting": "P. aeruginosa 503-820", "result": "> 128", "unit": "µg/mL"},
      {"measurement": "MIC", "setting": "P. aeruginosa 6148B", "result": 128, "unit": "µg/mL"},
      {"measurement": "MIC", "setting": "P. aeruginosa 8710", "result": "> 128", "unit": "µg/mL"},
      {"measurement": "MIC", "setting": "P. aeruginosa 8780", "result": "> 128", "unit": "µg/mL"},
      {"measurement": "MIC", "setting": "P. mirabilis 190", "result": 0.5, "unit": "µg/mL"},
      {"measurement": "MIC", "setting": "P. mirabilis 2", "result": 8, "unit": "µg/mL"},
      {"measurement": "MIC", "setting": "P. rettgeri ATCC 9250", "result": 16, "unit": "µg/mL"},
      {"measurement": "MIC", "setting": "P. vulgaris ATCC 6380", "result": 0.125, "unit": "µg/mL"},
      {"measurement": "MIC", "setting": "S. aureus Giorgio", "result": 8, "unit": "µg/mL"},
      {"measurement": "MIC", "setting": "S. marcescens 5805", "result": 1, "unit": "µg/mL"},
      {"measurement": "MIC", "setting": "S. marcescens S2", "result": 0.25, "unit": "µg/mL"},
      {"measurement": "MIC", "setting": "S. marcescens S3", "result": 0.25, "unit": "µg/mL"},
      {"measurement": "MIC", "setting": "S. marcescens S4", "result": 1, "unit": "µg/mL"},
      {"measurement": "MIC", "setting": "S. marcescens SM", "result": 0.5, "unit": "µg/mL"},
      {"measurement": "MIC", "setting": "S. pneumoniae 6301", "result": 1, "unit": "µg/mL"},
      {"measurement": "MIC", "setting": "S. pneumoniae 6302", "result": 4, "unit": "µg/mL"},
      {"measurement": "MIC", "setting": "S. pneumoniae SC", "result": 4, "unit": "µg/mL"},
      {"measurement": "MIC", "setting": "S. pyogenes 4", "result": 4, "unit": "µg/mL"},
      {"measurement": "MIC", "setting": "S. schottmuelleri", "result": 0.062, "unit": "µg/mL"},
      {"measurement": "MIC", "setting": "S. typhi P58A", "result": 8, "unit": "µg/mL"}
    ]}
  ]
}
